{"source": "patent US5292505A", "about": "“Sulphated vinyl polymer in composition for treating retroviral infections” (Stichting Rega VZW, priority 1989, dated 1994)", "origin": "cited, not measured here", "key": {"[1]": {"tested_on": "AIDS", "conditions": "AIDS patients, Fischl et al"}, "[2]": {"tested_on": "Molt-4 cells co-cultured with HIV-1-infected HUT-78 cells", "conditions": "statement without own test"}}, "data": [{"smiles": "Cc1cn([C@H]2C[C@H](N=[N+]=[N-])[C@@H](CO)O2)c(=O)[nH]c1=O", "note": "[azidothymidine, 3'-azido-2',3'-dideoxythymidine]", "values": [{"measurement": "clinical effectiveness", "setting": "[1]", "value": "clinically effective"}, {"measurement": "inhibition of giant cell formation", "setting": "[2]", "value": "does not show such effect"}]}]}
